This note sets out measurements from publication PMC6534296, “Structural analysis of Cytochrome P450 BM3 mutant M11 in complex with dithiothreitol” (PLoS ONE, 2019).

The target of the assay is T1, Cytochrome P450 BM3 (CYP102A1) mutant M11 (Priestia megaterium, UniProt P14779, E144G/E268V/E65G/F82I/F88V/G416S/H286Y/L189Q/R48L/Y199C).
T1 construct: heme domain (stop codon introduced after residue 473)
Briefly: X-ray crystal structure ([…] Å) and UV/Vis difference spectral titration. It is filed as binding.

T1 sequence (P14779 1-474 R48L/E65G/F82I/F88V/E144G/L189Q/Y199C/E268V/H286Y/G416S): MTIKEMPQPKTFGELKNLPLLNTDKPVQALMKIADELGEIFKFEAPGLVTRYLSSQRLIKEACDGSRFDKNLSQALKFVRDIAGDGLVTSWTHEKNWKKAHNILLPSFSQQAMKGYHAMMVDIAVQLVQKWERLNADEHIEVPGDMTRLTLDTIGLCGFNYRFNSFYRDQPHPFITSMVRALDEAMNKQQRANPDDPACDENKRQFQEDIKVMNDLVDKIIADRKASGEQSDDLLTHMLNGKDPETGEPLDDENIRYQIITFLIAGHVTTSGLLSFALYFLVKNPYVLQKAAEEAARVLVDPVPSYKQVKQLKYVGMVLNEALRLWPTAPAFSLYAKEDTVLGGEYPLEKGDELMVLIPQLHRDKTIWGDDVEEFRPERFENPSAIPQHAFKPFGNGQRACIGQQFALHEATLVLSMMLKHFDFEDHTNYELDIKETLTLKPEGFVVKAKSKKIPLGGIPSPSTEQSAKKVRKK

As usually defined, the Kd is a measure of binding affinity in units of concentration. High values mean lower affinity, low ones higher affinity. In turn, `O[C@@H](CS)[C@@H](O)CS` (racemic) [DTT, dithiothreitol] yielded a Kd of 56.8 ± 1.3 µM.
